Assay results from ChEMBL document CHEMBL1201862, “PubChem BioAssay data set” (2004).
Calls of active or inactive are those of the source.

Legend:
Caspase-9 = Caspase-9 (Homo sapiens, UniProt P55211); test: caspase-9 enzyme inhibition, dose response, selectivity assay for caspase-6 inhibitor project, biochemical, fluorescence, plate reader, cherry-picked samples (AID 743293)
[1] = target: T1, Sentrin-specific protease 7 (Homo sapiens, UniProt Q9BQF6); test: SENP7 protease inhibitors, SAR follow-up, biochemical, luminescence (AID 504497); format: functional
T1 sequence (Q9BQF6 whole entry): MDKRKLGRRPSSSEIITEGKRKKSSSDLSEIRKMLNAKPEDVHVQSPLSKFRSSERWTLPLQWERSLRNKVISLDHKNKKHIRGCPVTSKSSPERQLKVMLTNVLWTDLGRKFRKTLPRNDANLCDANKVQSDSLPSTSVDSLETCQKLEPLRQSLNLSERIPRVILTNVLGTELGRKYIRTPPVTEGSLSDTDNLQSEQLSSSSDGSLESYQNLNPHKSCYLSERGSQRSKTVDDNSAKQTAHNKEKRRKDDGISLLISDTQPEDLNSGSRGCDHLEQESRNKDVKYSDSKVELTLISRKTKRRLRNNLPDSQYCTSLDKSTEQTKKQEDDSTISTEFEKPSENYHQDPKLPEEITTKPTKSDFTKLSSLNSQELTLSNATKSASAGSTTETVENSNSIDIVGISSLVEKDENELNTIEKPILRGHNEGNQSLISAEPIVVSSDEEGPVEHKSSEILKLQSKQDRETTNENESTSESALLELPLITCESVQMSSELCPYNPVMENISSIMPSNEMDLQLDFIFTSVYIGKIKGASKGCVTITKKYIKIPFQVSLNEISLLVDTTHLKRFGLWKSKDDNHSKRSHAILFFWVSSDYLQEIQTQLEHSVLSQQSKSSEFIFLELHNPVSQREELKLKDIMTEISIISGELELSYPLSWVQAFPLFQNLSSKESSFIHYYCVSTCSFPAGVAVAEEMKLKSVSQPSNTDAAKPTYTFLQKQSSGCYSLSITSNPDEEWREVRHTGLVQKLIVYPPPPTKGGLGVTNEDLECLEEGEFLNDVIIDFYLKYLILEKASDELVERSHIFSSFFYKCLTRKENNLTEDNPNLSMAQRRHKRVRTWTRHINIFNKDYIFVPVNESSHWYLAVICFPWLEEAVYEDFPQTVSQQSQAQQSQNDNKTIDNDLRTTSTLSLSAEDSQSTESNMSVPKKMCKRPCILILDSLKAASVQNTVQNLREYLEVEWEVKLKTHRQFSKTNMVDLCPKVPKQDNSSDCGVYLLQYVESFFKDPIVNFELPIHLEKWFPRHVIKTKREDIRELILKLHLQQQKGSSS

[2] = target: T2, Replicative DNA helicase DnaB (Mycobacterium tuberculosis, UniProt P9WMR3); test: DnaB intein splicing inhibitors, dose response, biochemical, cell-free fluorescence (AID 449749); format: functional
T2 sequence (P9WMR3 whole entry): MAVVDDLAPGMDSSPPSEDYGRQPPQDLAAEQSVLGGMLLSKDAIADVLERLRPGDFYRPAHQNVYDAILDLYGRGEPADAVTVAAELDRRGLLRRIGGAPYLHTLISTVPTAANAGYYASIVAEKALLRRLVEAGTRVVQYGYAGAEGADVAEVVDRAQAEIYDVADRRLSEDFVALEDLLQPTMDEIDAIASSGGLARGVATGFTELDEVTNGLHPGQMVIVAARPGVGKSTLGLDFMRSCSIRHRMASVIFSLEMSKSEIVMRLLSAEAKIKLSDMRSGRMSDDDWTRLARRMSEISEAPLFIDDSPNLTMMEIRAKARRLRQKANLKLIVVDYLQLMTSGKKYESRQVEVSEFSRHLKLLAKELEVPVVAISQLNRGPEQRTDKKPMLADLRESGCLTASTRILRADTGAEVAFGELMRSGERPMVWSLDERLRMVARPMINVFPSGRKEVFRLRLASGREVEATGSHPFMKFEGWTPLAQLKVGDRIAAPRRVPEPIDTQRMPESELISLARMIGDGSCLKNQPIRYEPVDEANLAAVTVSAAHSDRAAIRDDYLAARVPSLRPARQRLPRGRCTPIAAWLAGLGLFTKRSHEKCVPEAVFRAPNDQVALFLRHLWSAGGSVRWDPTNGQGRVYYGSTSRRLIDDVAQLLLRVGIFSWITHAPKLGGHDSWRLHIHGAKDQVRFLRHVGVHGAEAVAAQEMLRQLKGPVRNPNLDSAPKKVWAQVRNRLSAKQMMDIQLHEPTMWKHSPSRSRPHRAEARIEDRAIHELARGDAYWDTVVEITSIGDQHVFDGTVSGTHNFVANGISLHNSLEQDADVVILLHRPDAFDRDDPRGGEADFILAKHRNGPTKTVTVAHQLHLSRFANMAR

[3] = target: Fibroblast growth factor receptor 1 (Homo sapiens, UniProt P11362); format: functional
Fibroblast growth factor receptor 1, sequence (P11362 whole entry): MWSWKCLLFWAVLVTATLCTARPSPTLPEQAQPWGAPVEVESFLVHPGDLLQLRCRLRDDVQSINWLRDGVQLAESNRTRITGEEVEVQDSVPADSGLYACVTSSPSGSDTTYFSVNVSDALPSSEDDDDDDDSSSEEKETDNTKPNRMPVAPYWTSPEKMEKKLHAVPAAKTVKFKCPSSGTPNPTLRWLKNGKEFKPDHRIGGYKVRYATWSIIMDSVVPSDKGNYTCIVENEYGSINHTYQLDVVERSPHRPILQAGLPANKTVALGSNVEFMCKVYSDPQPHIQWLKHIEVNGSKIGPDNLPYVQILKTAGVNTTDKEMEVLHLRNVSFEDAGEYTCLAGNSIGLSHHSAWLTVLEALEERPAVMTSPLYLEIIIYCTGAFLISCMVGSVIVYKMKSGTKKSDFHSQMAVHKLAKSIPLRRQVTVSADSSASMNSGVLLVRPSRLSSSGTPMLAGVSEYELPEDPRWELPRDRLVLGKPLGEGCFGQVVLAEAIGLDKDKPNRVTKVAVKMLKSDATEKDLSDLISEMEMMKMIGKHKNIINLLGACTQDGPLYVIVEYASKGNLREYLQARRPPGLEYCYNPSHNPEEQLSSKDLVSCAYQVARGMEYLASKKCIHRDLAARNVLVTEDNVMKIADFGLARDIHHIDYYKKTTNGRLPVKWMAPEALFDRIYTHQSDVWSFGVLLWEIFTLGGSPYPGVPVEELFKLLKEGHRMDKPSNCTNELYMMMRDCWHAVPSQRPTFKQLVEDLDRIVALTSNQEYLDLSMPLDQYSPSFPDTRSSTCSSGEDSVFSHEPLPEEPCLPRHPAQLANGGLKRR

[4] = target: BDNF/NT-3 growth factors receptor (Homo sapiens, UniProt Q16620); format: functional;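 note: NTRK2 measured as one member of a broad kinome-wide kinase profiling panel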
BDNF/NT-3 growth factors receptor, sequence (Q16620 whole entry): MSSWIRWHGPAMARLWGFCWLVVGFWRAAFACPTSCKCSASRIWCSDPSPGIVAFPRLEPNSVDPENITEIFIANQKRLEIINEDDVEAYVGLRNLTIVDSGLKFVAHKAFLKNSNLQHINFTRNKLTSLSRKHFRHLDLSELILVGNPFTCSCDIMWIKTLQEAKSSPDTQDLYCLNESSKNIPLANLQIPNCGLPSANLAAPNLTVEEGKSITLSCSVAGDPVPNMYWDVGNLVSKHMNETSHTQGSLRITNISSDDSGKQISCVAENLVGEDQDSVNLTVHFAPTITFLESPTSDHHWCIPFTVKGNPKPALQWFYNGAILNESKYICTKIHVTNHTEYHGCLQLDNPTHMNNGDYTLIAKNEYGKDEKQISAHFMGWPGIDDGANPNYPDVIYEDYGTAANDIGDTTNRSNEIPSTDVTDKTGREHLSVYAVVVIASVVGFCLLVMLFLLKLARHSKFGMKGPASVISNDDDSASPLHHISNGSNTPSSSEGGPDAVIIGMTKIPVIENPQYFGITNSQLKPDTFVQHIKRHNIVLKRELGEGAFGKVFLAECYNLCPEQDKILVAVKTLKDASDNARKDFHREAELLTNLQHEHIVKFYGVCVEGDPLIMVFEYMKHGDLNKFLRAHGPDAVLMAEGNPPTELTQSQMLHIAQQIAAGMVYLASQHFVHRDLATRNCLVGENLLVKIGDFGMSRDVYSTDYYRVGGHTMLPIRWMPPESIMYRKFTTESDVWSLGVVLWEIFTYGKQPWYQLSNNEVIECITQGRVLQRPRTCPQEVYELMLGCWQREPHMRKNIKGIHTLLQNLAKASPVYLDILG

[5] = target: Testis-specific serine/threonine-protein kinase 2 (Homo sapiens, UniProt Q96PF2); format: functional;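 note: part of the Navigating the Kinome panel, target entry STK22B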
[6] = target: MAP kinase-activated protein kinase 3 (Homo sapiens, UniProt Q16644); format: functional;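 note: value comes from a kinome-wide profiling panel in which MAPKAPK3 is one of the panel members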
MAP kinase-activated protein kinase 3, sequence (Q16644 whole entry): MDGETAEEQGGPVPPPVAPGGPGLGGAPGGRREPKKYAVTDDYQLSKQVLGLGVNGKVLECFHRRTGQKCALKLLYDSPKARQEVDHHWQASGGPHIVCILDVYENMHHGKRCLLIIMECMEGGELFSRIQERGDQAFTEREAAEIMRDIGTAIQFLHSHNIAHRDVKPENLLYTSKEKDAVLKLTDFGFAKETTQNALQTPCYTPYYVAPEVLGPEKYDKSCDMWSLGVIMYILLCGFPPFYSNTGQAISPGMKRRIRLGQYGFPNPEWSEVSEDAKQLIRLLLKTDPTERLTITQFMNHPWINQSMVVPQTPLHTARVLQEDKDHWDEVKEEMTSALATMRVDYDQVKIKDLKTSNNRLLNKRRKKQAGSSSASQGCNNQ

[7] = target: RAC-gamma serine/threonine-protein kinase (Homo sapiens, UniProt Q9Y243); format: functional
RAC-gamma serine/threonine-protein kinase, sequence (Q9Y243 whole entry): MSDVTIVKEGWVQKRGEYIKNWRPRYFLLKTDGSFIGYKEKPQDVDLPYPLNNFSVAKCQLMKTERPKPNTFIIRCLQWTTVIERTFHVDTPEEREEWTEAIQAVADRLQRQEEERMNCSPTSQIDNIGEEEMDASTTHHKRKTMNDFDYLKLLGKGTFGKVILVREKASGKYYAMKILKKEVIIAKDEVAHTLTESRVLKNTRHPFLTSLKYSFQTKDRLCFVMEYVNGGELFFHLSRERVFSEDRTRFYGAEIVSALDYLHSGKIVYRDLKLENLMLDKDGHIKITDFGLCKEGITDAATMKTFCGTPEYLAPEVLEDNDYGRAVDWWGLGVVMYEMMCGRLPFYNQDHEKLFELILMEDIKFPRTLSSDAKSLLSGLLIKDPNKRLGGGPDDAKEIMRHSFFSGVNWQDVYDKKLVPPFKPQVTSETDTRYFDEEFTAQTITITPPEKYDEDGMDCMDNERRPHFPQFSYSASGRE

[8] = target: Cyclin-dependent kinase 1 (Homo sapiens, UniProt P06493); format: functional;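 note: Kinome-wide panel profiling, with the target listed as panel member CDC2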
Cyclin-dependent kinase 1, sequence (P06493 whole entry): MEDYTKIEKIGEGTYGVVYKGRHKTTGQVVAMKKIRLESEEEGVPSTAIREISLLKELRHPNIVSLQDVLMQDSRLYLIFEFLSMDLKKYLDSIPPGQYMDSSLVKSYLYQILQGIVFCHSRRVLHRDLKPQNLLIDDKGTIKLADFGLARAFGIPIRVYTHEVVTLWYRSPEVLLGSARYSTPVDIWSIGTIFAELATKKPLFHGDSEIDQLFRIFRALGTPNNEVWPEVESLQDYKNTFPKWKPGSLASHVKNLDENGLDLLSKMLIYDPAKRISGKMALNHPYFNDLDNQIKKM

[9] = target: Calcium/calmodulin-dependent protein kinase type II subunit delta (Homo sapiens, UniProt Q13557); format: functional
[10] = target: Interleukin-1 receptor-associated kinase 4 (Homo sapiens, UniProt Q9NWZ3); format: functional
Interleukin-1 receptor-associated kinase 4, sequence (Q9NWZ3 whole entry): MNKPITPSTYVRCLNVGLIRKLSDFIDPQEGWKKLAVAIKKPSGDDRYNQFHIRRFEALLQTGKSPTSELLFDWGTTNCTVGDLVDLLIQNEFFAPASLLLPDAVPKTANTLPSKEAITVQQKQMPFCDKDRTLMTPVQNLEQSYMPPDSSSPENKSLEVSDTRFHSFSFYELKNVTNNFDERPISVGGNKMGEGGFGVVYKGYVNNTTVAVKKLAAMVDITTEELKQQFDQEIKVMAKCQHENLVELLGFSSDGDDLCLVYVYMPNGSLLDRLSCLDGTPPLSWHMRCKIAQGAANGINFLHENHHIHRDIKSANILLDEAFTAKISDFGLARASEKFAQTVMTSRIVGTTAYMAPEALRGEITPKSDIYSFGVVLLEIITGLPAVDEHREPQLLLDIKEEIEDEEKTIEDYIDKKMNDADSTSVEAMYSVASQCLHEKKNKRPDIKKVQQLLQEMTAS

[11] = target: Polyadenylate-binding protein 1 (Homo sapiens, UniProt P11940); test: PABP1 MLLE–PAM2 binding inhibitor potency, dose response, biochemical, fluorescence polarization, FITC-PAM2 peptide (AID 602259); format: functional; settings: read-out: IC50_Mean
Polyadenylate-binding protein 1, sequence (P11940 whole entry): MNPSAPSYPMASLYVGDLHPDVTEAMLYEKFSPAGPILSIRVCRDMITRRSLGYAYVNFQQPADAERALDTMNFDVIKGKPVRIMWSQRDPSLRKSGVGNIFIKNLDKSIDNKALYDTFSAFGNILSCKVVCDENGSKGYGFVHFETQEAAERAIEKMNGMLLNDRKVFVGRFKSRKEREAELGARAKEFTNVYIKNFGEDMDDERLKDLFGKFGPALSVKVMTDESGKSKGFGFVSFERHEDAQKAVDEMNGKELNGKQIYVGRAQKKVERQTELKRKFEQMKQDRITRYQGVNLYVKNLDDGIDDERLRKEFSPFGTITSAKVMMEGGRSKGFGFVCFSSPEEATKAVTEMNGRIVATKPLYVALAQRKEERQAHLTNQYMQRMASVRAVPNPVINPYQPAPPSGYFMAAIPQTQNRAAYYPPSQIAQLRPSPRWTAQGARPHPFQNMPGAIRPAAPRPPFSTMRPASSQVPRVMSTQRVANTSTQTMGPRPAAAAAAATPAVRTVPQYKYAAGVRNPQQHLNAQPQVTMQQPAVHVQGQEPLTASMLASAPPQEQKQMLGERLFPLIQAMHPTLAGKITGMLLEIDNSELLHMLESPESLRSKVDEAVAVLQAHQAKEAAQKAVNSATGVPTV

[12] = target: Tyrosine-protein kinase BTK (Homo sapiens, UniProt Q06187); format: functional
Tyrosine-protein kinase BTK, sequence (Q06187 whole entry): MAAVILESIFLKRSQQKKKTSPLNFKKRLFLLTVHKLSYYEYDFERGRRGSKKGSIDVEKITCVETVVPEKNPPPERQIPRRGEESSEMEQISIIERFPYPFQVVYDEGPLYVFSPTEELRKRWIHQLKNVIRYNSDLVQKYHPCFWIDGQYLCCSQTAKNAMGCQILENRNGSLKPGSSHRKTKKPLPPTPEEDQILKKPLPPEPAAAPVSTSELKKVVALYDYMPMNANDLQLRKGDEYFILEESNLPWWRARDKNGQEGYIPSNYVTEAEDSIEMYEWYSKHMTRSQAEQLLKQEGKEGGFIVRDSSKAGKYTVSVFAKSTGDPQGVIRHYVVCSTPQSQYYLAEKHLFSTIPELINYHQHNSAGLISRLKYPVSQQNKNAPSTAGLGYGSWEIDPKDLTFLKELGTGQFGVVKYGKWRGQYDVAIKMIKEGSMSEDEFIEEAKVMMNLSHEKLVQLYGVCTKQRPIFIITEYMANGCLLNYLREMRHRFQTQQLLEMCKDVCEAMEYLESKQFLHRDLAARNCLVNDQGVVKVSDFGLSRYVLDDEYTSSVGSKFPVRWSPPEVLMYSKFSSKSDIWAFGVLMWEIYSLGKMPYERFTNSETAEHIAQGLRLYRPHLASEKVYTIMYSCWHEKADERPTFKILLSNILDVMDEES

Caspase-9, sequence (P55211 1-315 limits assumed): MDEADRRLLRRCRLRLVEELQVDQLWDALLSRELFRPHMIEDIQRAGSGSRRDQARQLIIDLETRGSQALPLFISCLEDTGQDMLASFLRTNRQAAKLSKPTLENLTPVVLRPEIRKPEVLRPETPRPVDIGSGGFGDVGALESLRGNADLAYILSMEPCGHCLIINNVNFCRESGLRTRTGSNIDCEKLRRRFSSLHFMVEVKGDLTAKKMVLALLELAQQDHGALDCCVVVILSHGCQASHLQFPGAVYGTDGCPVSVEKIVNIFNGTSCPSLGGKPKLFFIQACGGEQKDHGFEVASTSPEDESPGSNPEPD
Caspase-9, sequence (P55211 331-416 limits assumed): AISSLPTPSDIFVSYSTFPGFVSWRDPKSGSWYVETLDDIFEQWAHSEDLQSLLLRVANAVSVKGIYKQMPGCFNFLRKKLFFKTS

In the case of O=C(COC(=O)c1ccc([N+](=O)[O-])s1)Nc1cccc(S(=O)(=O)/N=C2/CCCCCN2)c1, the AC50 (Caspase-9) is reported as 30.2 µM (active).

For COc1ccc(C(C[N+](=O)[O-])c2c(C)[nH]n(-c3ccccc3)c2=O)cc1 (stereo not drawn), the IC50 [1] was 12.3 µM (active) and the AC50 [2] was 3 µM (active).

For Oc1c2ccccc2c2c3c(cccc13)N=N2 [SP-600125], the Ki [3] was 251 nM (active), the Ki [4] was 794 nM (active) and the Ki [5] was > 1.58 µM (inactive). For the same compound, the Ki [6] was > 10 µM (inactive), the Ki [7] was > 10 µM (inactive) and the Ki [8] was 1 µM (active). For the same compound, the Ki [9] was 1 µM (active), the Ki [10] was 158 nM (active) and the IC50 [11] was 30.9 µM (inactive). The Ki [12] was > 1.26 µM (inactive).
